From patent publication US20260294905A1, “USE OF PLURALITY OF COMPOUNDS IN PREPARATION OF DRUG FOR TREATING MYELOPROLIFERATIVE NEOPLASMS” (THE SECOND XIANGYA HOSPITAL OF CENTRAL SOUTH UNIVERSITY, priority 2022, published 2026)
Several values for one entry are separate records, joined by “and”; a condition that tells them apart may be missing. Identical values can stand only once. Entries after “also recorded” stand apart in the source; their conditions may differ.

Key:
[1] = test system: HEL cells (human erythroleukemia cell line); experiment: CellTiter-Lumi luminescence proliferation of naive HEL cells, 48 h; type: cell-based; settings: for activity at 0.1 µM / activity at 0.3 µM / activity at 1 µM / activity at 3 µM / activity at 10 µM: Homo sapiens, 48 h, vs DMSO control, read-out: average proliferation rate of HEL cells
Protocol: (§1) HELs (Human erythroleukemia cell lines) and Ruxolitinib-resistant HEL cells were both cultured in a RPMI medium (Gibco) containing 20% heat-inactivated fetal bovine serum (Gibco) and 1% penicillin/streptomycin.
(§2) Ruxolitinib and other compounds were all purchased from Selleck, dissolved in DMSO with a stock solution concentration of 10 mM, and cryopreserved at −80° C. The working solution was diluted to a specified multiple using a RPMI medium and then used for treating cells. Ruxolitinib was specifically ruxolitinib phosphate.
(§3) To detect the antiproliferative effect of the inhibitor, the aforementioned cell lines were cultured at 3,000 cells/100 μL of the system per well, added with increasing concentrations of Ruxolitinib (concentration gradients of HEL cells: 0, 0.1, 1, 2.5, 5 μM; or 0, 0.1, 0.3, 1, 3, 10 μM), and added with DMSO to make up to the same amount. 4 parallel replicate groups were set up, and 3 blank wells (wells containing culture media without cells) were set up.
(§4) A calculation formula of the cell proliferation rate was: cell proliferation rate=(Luminescence value of the group added with the drug-average Luminescence value of the blank wells)/(Luminescence value of the DMSO control group-average Luminescence value of the blank wells)×100%.
In order to detect the effects of the compounds on the proliferation abilities of drug-resistant myeloproliferative neoplasm cells, the method was to treat the HEL naïve cell lines with increasing concentrations of Ruxolitinib and the compounds respectively, and to detect the proliferation of the cells by a CellTiter-Lumi™ luminescence method.

[2] = test system: HEL^RE cells (Ruxolitinib-resistant HEL); experiment: CellTiter-Lumi luminescence proliferation of Ruxolitinib-resistant HEL^RE cells, 48 h; type: cell-based, human; settings: HEL^RE cells; for inhibition of proliferation of HEL^RE cells (in words): 0.1-10 μM; for activity at 0.1 µM / activity at 0.3 µM / activity at 1 µM / activity at 3 µM / activity at 10 µM: Homo sapiens, 48 h, vs DMSO control, read-out: average proliferation rate of HEL^RE cells
Description: as §1
A Ruxolitinib-resistant HEL model, i.e., a HEL^RE model, was constructed by starting the addition of Ruxolitinib at a concentration lower than the IC50 of naïve cells and slowly incrementing the concentration to a high concentration, and preventing the cells from being killed. Our starting concentration was 0.1 μM. The drug was added upon occurrence of cell proliferation. The drug addition gradient was an increment at a multiple of 1.25, and the final concentration was 2.0 μM. Stable drug-resistant cells were obtained after 4-6 weeks.
as §2, §3, §4
A method for evaluating whether the model was successfully constructed was to compare the IC50s of resistant cells and naïve cells.
In order to detect the effects of five compounds on the proliferation abilities of drug-resistant myeloproliferative neoplasm cells, the method was to treat HEL^RE with increasing concentrations of Ruxolitinib and the five compounds respectively, and to detect the proliferation of the cells by a CellTiter-Lumi™ luminescence method.

[3] = test system: HEL cells (human erythroleukemia cell line); experiment: Annexin V-PI staining and flow cytometry, apoptosis of HEL cells, 24 h; type: cell-based
Protocol: • 1. the cell lines and inhibitors were the same as those in Example 1. • 2. detection of cell apoptosis
(§5) To detect the apoptosis-promoting effect of the inhibitors, HEL naïve cell strains were treated with Ruxolitinib and the compounds for 24 hours respectively (with concentrations of: 0, 0.1, 0.5, 1 μM or 0, 0.1, 0.3, 1, 3, 10 μM), and added with DMSO to make up to the same amount. 3 parallel replicate groups were set up, and cell apoptosis was detected by Annexin V and PI staining followed by flow cytometry.
(§6) A calculation formula of cell apoptosis rate was: cell apoptosis rate=the ratio of early apoptotic cells (Annexin V^+/PI^−)+the ratio of late apoptotic cells and necrotic cells (Annexin V^+/PI^+).

[4] = test system: HEL^RE cells (Ruxolitinib-resistant HEL); experiment: Annexin V-PI staining and flow cytometry, apoptosis of HEL^RE cells; type: cell-based, human; settings: for average apoptosis rate of HEL-RE cells: 24 h; for promotion of apoptosis of HEL^RE cells (in words): 0.1-10 μM
Protocol: as §5, §6
In order to detect the effects of compounds on the abilities of drug-resistant myeloproliferative neoplasm cells, the method was to treat HEL^RE with increasing concentrations of Ruxolitinib and the compounds, and to detect cell apoptosis by Annexin V and PI staining followed by flow cytometry.

[5] = test system: myeloproliferative neoplasms patients; settings: clinical use; cited from earlier work
[6] = proliferation and apoptosis taken together

| SMILES | inhibition of proliferation of HEL cells (in words) ([1]; 0.1-10 μM) | activity at 0.1 µM [1] | activity at 0.3 µM [1] | activity at 1 µM [1] | activity at 3 µM [1] | activity at 10 µM [1] | inhibition of proliferation of HEL^RE cells (in words) [2] | activity at 0.1 µM [2] | activity at 0.3 µM [2] | activity at 1 µM [2] | activity at 3 µM [2] | activity at 10 µM [2] | average apoptosis rate of HEL cells ([3]; 0.1 μM) | average apoptosis rate of HEL cells ([3]; 0.3 μM) | average apoptosis rate of HEL cells ([3]; 1 μM) | average apoptosis rate of HEL cells ([3]; 3 μM) | average apoptosis rate of HEL cells ([3]; 10 μM) | promotion of apoptosis of HEL cells (in words) ([3]; 0.1-10 μM) | average apoptosis rate of HEL-RE cells ([4]; 0.1 μM) | average apoptosis rate of HEL-RE cells ([4]; 0.3 μM) | also measured |
| --- | --- | --- | --- | --- | --- | --- | --- | --- | --- | --- | --- | --- | --- | --- | --- | --- | --- | --- | --- | --- | --- |
| Cn1c(Nc2ccc(C(F)(F)F)cc2)nc2cc(Oc3ccnc(-c4ncc(C(F)(F)F)[nH]4)c3)ccc21 [RAF265] | can successfully inhibit the proliferation of the HEL cells; also recorded: could inhibit the proliferation of the HEL cells, this effect was increased with the increase of the drug concentration | 66.1 ± 4.71% | 45.2 ± 2.96% | 37 ± 2.18% | 30 ± 0.13% | 19.2 ± 0.99% | could inhibit the proliferation of the HEL^RE cells, and this effect increased with increase in the drug concentration | 92 ± 3.92% | 67.2 ± 3.7% | 35.8 ± 3.88% | 21.8 ± 1.48% | 3.45 ± 0.58% | 7.24±1.30% and 7.24% | 7.19±0.400% and 7.19% | 8.11±0.260% and 8.11% | 10.7±1.22% and 10.7% | 12.8±1.44% and 12.8% | could promote the apoptosis of the HEL cells, this effect was increased with the increase of the drug concentration; also recorded: can promote the apoptosis of the HEL cells | 6.48±0.480% and 6.48% | 7.31±0.140% and 7.31% | inhibitory effect on proliferation compared with Ruxolitinib ([1]; 0.1-10 μM): its inhibitory effect was better than that of Ruxolitinib; overall effectiveness among the compounds [1, 6]: more effective; overall effectiveness among the compounds [2, 6]: more effective; effect on apoptosis compared with Ruxolitinib ([3]; 0.1-10 μM): its inhibitory effect was better than that of Ruxolitinib; average apoptosis rate of HEL-RE cells ([4]; 1 μM): 8.24±0.730% and 8.24%; average apoptosis rate of HEL-RE cells ([4]; 3 μM): 11.9±0.520% and 11.9%; average apoptosis rate of HEL-RE cells ([4]; 10 μM): 19.1±3.75% and 19.1%; promotion of apoptosis of HEL^RE cells (in words) [4]: could promote apoptosis of the HEL^RE cells, and this effect increased with increase in the drug concentration; also recorded: can promote the apoptosis of the HEL^RE cells |
| Cc1ccc2c(Nc3cccc(Cl)c3F)nccc2c1NC(=O)c1csc2c(N)ncnc12 [Belvarafenib] | could not inhibit the proliferation of the HEL cells | 98.9 ± 6.41% | 89.2 ± 4.68% | 98.2 ± 3.19% | 90.1 ± 4.72% | 87.3 ± 2.39% | could inhibit the proliferation of the HEL^RE cells, and this effect increased with increase in the drug concentration | 104 ± 6.13% | 92.4 ± 2.45% | 70.4% | 45.4 ± 2.33% | 31.1 ± 3.6% | 6.58±0.760% and 6.58% | 7.42±0.950% and 7.42% | 7.80±0.700% and 7.80% | 7.17±1.31% and 7.17% | 7.55±0.160% and 7.55% | could not promote apoptosis of the HEL cells | 5.55±0.440% and 5.55% | 5.40±0.570% and 5.40% | average apoptosis rate of HEL-RE cells ([4]; 1 μM): 5.71±0.260% and 5.71%; average apoptosis rate of HEL-RE cells ([4]; 3 μM): 6.05±0.430% and 6.05%; average apoptosis rate of HEL-RE cells ([4]; 10 μM): 7.13±0.450% and 7.13%; promotion of apoptosis of HEL^RE cells (in words) [4]: could not promote apoptosis of the HEL^RE cells |
| Cc1cnc(Nc2ccc(OCCN3CCCC3)cc2)nc1Nc1cccc(S(=O)(=O)NC(C)(C)C)c1 [Fedratinib] |  |  |  |  |  |  |  |  |  |  |  |  |  |  |  |  |  |  |  |  | side effects / safety in patients [5]: may cause encephalopathy, including the risk of Wernicke's encephalopathy |
| NC(=O)NO [Hydroxyurea, hydroxyurea] |  |  |  |  |  |  |  |  |  |  |  |  |  |  |  |  |  |  |  |  | effect on symptoms, clonal hematopoiesis, mutant gene load [5]: can only relieve symptoms but cannot inhibit clonal hematopoiesis; side effects / safety in patients [5]: may increase the risks of myelodysplastic syndrome and acute myelogenous leukemia |
